Molecular target: Voltage-dependent L-type calcium channel subunit alpha-1D (Rattus norvegicus, UniProt P27732)
Test: Inhibition of [3H]nitrendipine binding to L-type [Ca2+] channel in rat cortex homogenate, activity expressed as pIC50

Chain of Voltage-dependent L-type calcium channel subunit alpha-1D (P27732 whole entry): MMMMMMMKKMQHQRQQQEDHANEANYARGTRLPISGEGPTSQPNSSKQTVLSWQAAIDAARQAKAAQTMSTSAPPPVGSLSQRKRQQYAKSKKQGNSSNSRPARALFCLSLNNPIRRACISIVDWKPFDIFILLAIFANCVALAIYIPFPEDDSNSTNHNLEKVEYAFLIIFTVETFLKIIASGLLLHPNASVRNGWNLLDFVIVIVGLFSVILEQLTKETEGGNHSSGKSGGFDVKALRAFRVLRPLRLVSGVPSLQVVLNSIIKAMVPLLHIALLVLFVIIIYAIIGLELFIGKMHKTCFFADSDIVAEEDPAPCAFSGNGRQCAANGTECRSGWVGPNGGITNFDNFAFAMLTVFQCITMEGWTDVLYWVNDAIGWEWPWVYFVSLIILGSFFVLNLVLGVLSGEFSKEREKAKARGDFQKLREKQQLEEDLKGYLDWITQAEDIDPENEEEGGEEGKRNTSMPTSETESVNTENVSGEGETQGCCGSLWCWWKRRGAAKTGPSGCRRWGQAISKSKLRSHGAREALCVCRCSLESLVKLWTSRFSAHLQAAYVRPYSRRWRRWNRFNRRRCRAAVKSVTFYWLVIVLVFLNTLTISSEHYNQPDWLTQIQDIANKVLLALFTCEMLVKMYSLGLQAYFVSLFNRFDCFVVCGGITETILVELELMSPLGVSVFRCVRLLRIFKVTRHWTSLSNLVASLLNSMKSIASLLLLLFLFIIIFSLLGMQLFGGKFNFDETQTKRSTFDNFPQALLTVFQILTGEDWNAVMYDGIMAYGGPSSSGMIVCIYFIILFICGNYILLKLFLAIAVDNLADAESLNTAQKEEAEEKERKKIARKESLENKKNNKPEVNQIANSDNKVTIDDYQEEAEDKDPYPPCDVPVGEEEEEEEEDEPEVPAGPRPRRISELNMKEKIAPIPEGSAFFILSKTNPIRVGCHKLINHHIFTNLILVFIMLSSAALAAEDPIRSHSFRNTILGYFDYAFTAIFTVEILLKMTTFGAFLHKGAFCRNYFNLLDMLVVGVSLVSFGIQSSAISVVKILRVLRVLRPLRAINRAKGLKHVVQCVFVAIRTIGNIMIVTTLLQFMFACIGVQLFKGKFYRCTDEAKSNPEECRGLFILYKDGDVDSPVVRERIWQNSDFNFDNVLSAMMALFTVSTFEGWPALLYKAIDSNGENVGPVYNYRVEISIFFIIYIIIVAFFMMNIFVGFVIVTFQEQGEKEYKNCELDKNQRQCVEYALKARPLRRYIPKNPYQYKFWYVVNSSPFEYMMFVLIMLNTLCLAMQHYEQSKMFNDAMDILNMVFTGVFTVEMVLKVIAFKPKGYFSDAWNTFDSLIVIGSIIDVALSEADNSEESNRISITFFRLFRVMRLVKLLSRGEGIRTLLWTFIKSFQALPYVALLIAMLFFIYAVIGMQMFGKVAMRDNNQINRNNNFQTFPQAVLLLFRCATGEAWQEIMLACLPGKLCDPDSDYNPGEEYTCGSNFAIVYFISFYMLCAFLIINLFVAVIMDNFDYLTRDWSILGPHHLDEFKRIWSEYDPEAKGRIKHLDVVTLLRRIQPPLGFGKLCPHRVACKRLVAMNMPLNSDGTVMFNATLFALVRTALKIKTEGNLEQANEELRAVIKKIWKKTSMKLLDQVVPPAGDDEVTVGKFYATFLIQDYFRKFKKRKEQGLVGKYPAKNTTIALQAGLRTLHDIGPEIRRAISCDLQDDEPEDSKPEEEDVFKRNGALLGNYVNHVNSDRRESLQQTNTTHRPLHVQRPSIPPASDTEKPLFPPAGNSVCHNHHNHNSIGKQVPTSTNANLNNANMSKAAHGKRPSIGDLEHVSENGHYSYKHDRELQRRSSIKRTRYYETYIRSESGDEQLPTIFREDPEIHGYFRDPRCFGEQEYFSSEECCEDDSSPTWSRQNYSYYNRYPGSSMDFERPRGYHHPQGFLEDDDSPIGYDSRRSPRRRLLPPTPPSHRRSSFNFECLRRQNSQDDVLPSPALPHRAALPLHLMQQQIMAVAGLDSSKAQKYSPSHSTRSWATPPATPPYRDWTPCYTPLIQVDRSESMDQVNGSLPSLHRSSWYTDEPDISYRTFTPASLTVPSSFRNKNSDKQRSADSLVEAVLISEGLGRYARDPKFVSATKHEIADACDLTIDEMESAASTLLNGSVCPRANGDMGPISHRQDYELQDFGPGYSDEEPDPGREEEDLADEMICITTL

| IC50 | Structure (SMILES) |
| --- | --- |
| 15.1 nM | CCC(C)NCc1ccc2n1-c1ccccc1SC2c1ccc(OC)cc1OC (centres undefined) |
| 81.3 nM | CN(C)Cc1ccc2n1-c1cccc(Cl)c1SC2(c1ccccc1)c1ccccc1 |
| 2040 nM | FC(F)(F)c1ccc2c(c1)-n1cccc1C(c1ccccc1)(c1ccccc1)S2 |
| 1230 nM | CC(=O)O[C@H]1c2ccc(CN(C)C)n2-c2cc(Cl)ccc2S[C@H]1c1ccccc1 |
| 0.776 nM | O=C1CC[C@H]2[C@H](c3ccccc3)Sc3ccccc3N12 |
| 52.5 nM | COc1ccc(C2Sc3ccccc3-n3c(CN(C)CCc4ccc(OC)c(OC)c4)ccc32)cc1 (centres undefined) |
| 12 nM | CCC(C)NCc1ccc2n1-c1ccccc1SC2C1=CCC(OC)(OC)C=C1 (centres undefined) |
| 302 nM | CC(=O)O[C@H]1c2ccc(CN(C)C)n2-c2cc(C(F)(F)F)ccc2S[C@H]1c1ccccc1 |
| 4.37 nM | COc1ccc([C@@H]2Sc3ccccc3N3C(=O)CC[C@@H]23)cc1 |
| 107 nM | CN(C)Cc1ccc2n1-c1cc(C(F)(F)F)ccc1SC2(c1ccccc1)c1ccccc1 |
| 5010 nM | COc1ccc(C2Sc3ccccc3-n3c(CN4CCOCC4)ccc32)cc1 (centres undefined) |
| 4370 nM | Clc1ccc2c(c1)-n1cccc1C(c1ccccc1)(c1ccccc1)S2 |
| 468 nM | c1ccc(C2(c3ccccc3)Sc3ccccc3-n3cccc32)cc1 |
| 4680 nM | CC(=O)OC1(c2ccccc2)Sc2ccccc2-n2cccc21 (centres undefined) |
| 151 nM | COc1ccc(C2Sc3ccccc3-n3c(CN(C)C)ccc32)c(OC)c1 (centres undefined) |
| 316 nM | CN(C)Cc1ccc2n1-c1ccccc1SC2c1ccccc1 (centres undefined) |
| 316 nM | Clc1cccc2c1SC(c1ccccc1)(c1ccccc1)c1cccn1-2 |
| 3.31 nM | COc1ccc([C@@H]2Sc3ccc(Cl)cc3-n3c(CN(C)C)ccc3[C@@H]2OC(C)=O)cc1 |
| 2190 nM | COc1ccc(C2(c3ccc(OC)cc3)Sc3ccccc3-n3c(CN(C)C)ccc32)cc1 |
| 1580 nM | COc1ccc(C2Sc3ccccc3-n3c(CN(C)CCc4ccc(OC)c(OC)c4)ccc32)c(OC)c1 (centres undefined) |
| 5010 nM | COC1(OC)C=CC(C2(C3=CCC(OC)(OC)C=C3)Sc3ccc(C(F)(F)F)cc3-n3cccc32)=CC1 |
| 5010 nM | COc1ccc([C@@H]2Sc3ccc(C(F)(F)F)cc3-n3c(CN(C)C)ccc3[C@@H]2OC(C)=O)cc1 |
| 30.2 nM | COc1ccc(C2(OC(C)=O)Sc3ccccc3-n3cccc32)cc1 (centres undefined) |
| 64.6 nM | CC(=O)OC1(c2ccccc2)Sc2ccc(C(F)(F)F)cc2-n2cccc21 (centres undefined) |
| 200 nM | COc1ccc(CCN(C)Cc2ccc3n2-c2ccccc2SC3c2ccccc2)cc1OC (centres undefined) |
| 135 nM | COc1ccc([C@@H]2Sc3ccccc3-n3c(CN(C)C)ccc3[C@@H]2OC(C)=O)cc1 |
| 398 nM | COc1ccc(CCNCc2ccc3n2-c2ccccc2SC3C2=CCC(OC)(OC)C=C2)cc1OC (centres undefined) |
| 5010 nM | COC1(OC)C=CC(C2(C3=CCC(OC)(OC)C=C3)Sc3ccccc3-n3cccc32)=CC1 |
| 5010 nM | CC(=O)O[C@H]1c2ccc(CN(C)C)n2-c2ccccc2S[C@H]1c1ccccc1 |

Reference: ChEMBL document CHEMBL1130013, “Diltiazem-like calcium entry blockers: a hypothesis of the receptor-binding site based on a comparative molecular field analysis model” (J Med Chem, 1997)
